Reference: the supplement of paper PMC10307832

Columns and labels:
Test in all cases: relative viability (nuclei count vs DMSO), 5 days (fraction); higher = more cells survive
EHT 1864 + AZD7762 = compound: C1COCCN1CC2=CC(=O)C(=CO2)OCCCCCSC3=C4C=CC(=CC4=NC=C3)C(F)(F)F [EHT 1864] + NC(=O)Nc1cc(-c2cccc(F)c2)sc1C(=O)N[C@H]1CCCNC1 [AZD7762] (partner 0.2 µM)
Outline: (§1)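 Lung cancer cell lines were seeded in 1536-well plates and dosed by pin tool the next day, with either a single drug or a fixed anchor-drug dose combined with five library-drug doses (not always all listed) spaced in √10 steps. Five days later, one step fixed the cells and stained their nuclei (final 0.05% Triton X-100, 1% formaldehyde, 1 ug/ml Hoechst), and nuclei were counted on 4× images. Relative viability is the nuclei count in treated wells divided by the count in vehicle wells, and each value is the median of duplicate plates.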

EHT 1864 + Vorinostat = compound: C1COCCN1CC2=CC(=O)C(=CO2)OCCCCCSC3=C4C=CC(=CC4=NC=C3)C(F)(F)F [EHT 1864] + O=C(CCCCCCC(=O)Nc1ccccc1)NO [Vorinostat] (partner 1 µM)
Outline: as §1

EHT 1864 + Foretinib = compound: C1COCCN1CC2=CC(=O)C(=CO2)OCCCCCSC3=C4C=CC(=CC4=NC=C3)C(F)(F)F [EHT 1864] + COc1cc2c(Oc3ccc(NC(=O)C4(C(=O)Nc5ccc(F)cc5)CC4)cc3F)ccnc2cc1OCCCN1CCOCC1 [Foretinib] (partner 0.25 µM)
Outline: as §1

EHT 1864 + Pictilisib = compound: C1COCCN1CC2=CC(=O)C(=CO2)OCCCCCSC3=C4C=CC(=CC4=NC=C3)C(F)(F)F [EHT 1864] + CS(=O)(=O)N1CCN(Cc2cc3nc(-c4cccc5[nH]ncc45)nc(N4CCOCC4)c3s2)CC1 [Pictilisib] (partner 1 µM)
Outline: as §1

Cell Line | relative viability (EHT 1864 + AZD7762; first compound 0.04 µM) | relative viability (EHT 1864 + AZD7762; first compound 0.4 µM) | relative viability (EHT 1864 + AZD7762; first compound 1.265 µM) | relative viability (EHT 1864 + AZD7762; first compound 4 µM) | relative viability (EHT 1864 + Vorinostat; first compound 0.04 µM) | relative viability (EHT 1864 + Vorinostat; first compound 0.4 µM) | relative viability (EHT 1864 + Vorinostat; first compound 1.265 µM) | relative viability (EHT 1864 + Vorinostat; first compound 4 µM) | relative viability (EHT 1864 + Foretinib; first compound 0.04 µM) | relative viability (EHT 1864 + Foretinib; first compound 0.1265 µM) | relative viability (EHT 1864 + Foretinib; first compound 0.4 µM) | relative viability (EHT 1864 + Foretinib; first compound 1.265 µM) | relative viability (EHT 1864 + Foretinib; first compound 4 µM) | relative viability (EHT 1864 + Pictilisib; first compound 0.04 µM) | relative viability (EHT 1864 + Pictilisib; first compound 0.1265 µM) | relative viability (EHT 1864 + Pictilisib; first compound 0.4 µM) | relative viability (EHT 1864 + Pictilisib; first compound 1.265 µM) | relative viability (EHT 1864 + Pictilisib; first compound 4 µM) | relative viability (EHT 1864 + AZD7762; first compound 0.1265 µM) | relative viability (EHT 1864 + Vorinostat; first compound 0.1265 µM)
NCI-H441 | 1.01 | 1.04 | 1.11 | 1.5 | 0.975 | 0.713 | 0.75 | 0.735 | 0.953 | 1.03 | 1 | 0.942 | 0.984 | 0.388 | 0.359 | 0.515 | 0.6 | 0.508 |  | 
NCI-H1944 | 0.5 | 0.511 | 0.563 | 0.665 | 0.528 | 0.595 | 0.514 | 0.661 | 0.893 |  | 0.882 | 0.89 | 0.701 | 0.355 |  | 0.344 | 0.359 | 0.312 |  | 
NCI-H23 | 0.203 | 0.223 | 0.198 | 0.221 | 0.627 | 0.582 | 0.578 | 0.532 | 0.92 | 0.959 | 0.889 | 0.956 | 0.923 | 0.476 |  | 0.432 | 0.593 | 0.55 | 0.231 | 0.343
HARA | 0.626 | 0.329 | 0.262 | 0.328 | 0.514 | 0.715 | 0.582 | 0.229 | 0.889 | 0.838 | 0.991 | 0.932 | 0.98 | 0.393 | 0.359 | 0.531 | 0.321 | 0.446 |  | 0.366
NCI-H1792 | 0.746 | 0.733 | 0.592 | 0.738 |  |  |  |  |  |  |  |  |  | 0.259 | 0.302 | 0.27 | 0.288 | 0.348 |  | 
NCI-H1703 | 0.128 | 0.118 | 0.128 | 0.15 |  |  |  |  | 0.309 |  | 0.299 | 0.339 | 0.382 | 0.222 | 0.245 | 0.26 | 0.251 | 0.266 |  | 
NCI-H2342 | 0.426 | 0.472 | 0.51 | 0.492 | 0.688 | 0.703 | 0.803 | 0.787 | 1.04 | 0.903 | 1.07 | 0.963 | 1.06 |  |  |  |  |  | 0.438 | 0.725
CAL-12T | 0.689 | 0.624 | 0.517 | 0.516 | 0.671 | 0.644 | 0.775 | 0.812 | 1 | 1.05 | 1 | 0.852 | 0.908 | 0.596 | 0.542 | 0.446 | 0.457 | 0.574 | 0.543 | 0.553
NCI-H727 | 0.579 | 0.587 | 0.555 | 0.794 | 1.47 | 1.07 | 1.26 | 1.29 | 0.905 | 0.875 | 0.724 | 0.95 | 0.928 | 0.482 | 0.353 | 0.419 |  | 0.458 | 0.693 | 1.31
NCI-H2085 | 0.962 | 0.973 | 0.987 | 0.942 | 0.789 | 0.838 | 0.774 | 0.804 | 1.13 |  | 0.9 | 0.92 | 0.89 | 0.555 | 0.524 | 0.47 | 0.448 | 0.428 | 0.645 | 0.577
NCI-H1395 | 0.394 | 0.389 | 0.437 | 0.436 | 0.775 | 0.819 | 0.607 | 0.681 | 1.03 | 0.924 | 0.897 | 1.02 | 0.859 | 0.66 | 0.557 | 0.58 | 0.59 | 0.588 | 0.37 | 0.552
NCI-H1648 | 0.72 | 0.609 | 0.662 | 0.866 | 0.562 | 0.436 | 0.411 | 0.644 |  |  |  |  |  |  |  |  |  |  |  | 
NCI-H460 | 0.642 | 0.635 | 0.436 | 0.568 |  | 0.703 | 0.654 | 0.647 | 1 | 0.921 | 1.01 | 1.01 | 0.853 | 0.379 | 0.401 | 0.365 | 0.251 | 0.345 | 0.541 | 0.718
A549 |  |  |  |  |  |  |  |  | 0.995 | 0.986 | 0.978 | 0.815 | 0.714 |  | 0.524 | 0.416 | 0.411 | 0.461 |  | 
IA-LM |  |  |  |  | 0.917 | 0.853 | 0.946 | 1.24 | 1.21 |  | 1.09 | 1.03 | 0.901 | 0.421 |  | 0.38 | 0.387 | 0.384 |  | 
EKVX | 0.685 | 0.484 | 0.764 | 0.684 | 0.749 | 0.69 | 0.743 | 0.631 | 1.09 | 0.758 | 0.715 | 0.661 | 0.592 | 0.396 | 0.428 | 0.496 | 0.485 | 0.437 | 0.661 | 0.524
ChaGo-K-1 | 0.881 | 0.956 | 0.871 | 0.907 | 0.785 | 0.72 | 0.811 | 0.76 | 0.858 | 0.888 | 0.809 | 0.895 | 0.814 | 0.816 | 0.664 | 0.736 |  | 0.806 | 0.834 | 0.76
NCI-H1755 | 0.438 | 0.405 | 0.402 | 0.456 | 1 | 0.748 | 0.75 | 0.811 | 0.914 | 0.872 | 0.876 | 0.844 | 0.803 | 0.495 | 0.376 | 0.403 | 0.436 | 0.428 | 0.424 | 0.808
NCI-H2228 |  |  |  |  | 0.658 | 0.571 |  | 0.365 | 0.81 | 0.758 | 0.904 | 0.836 | 0.9 | 0.414 | 0.357 | 0.267 | 0.417 | 0.443 |  | 0.641
